# Non-standard residues stand in square brackets, D forms with d. Residues, ends and D or L forms follow the SMILES beside them.
# What was measured:
# [1] = Weight gain in young bulls; format: in vivo; settings: during the experiment
# Method: There were 7 groups of animals having approximately the same weight, with 12 young bulls in each group. The age of the animals was 2 months. There were 6 test groups and one control. The test animals were administered Sedatin with water before they were fed or as intramuscular injections in the amounts shown in Table 12. All animals received the same diet and were kept in the same conditions. Two animals in the control group fell ill during the experiment, and were replaced by analogs.
# Two groups, one control and one test, were chosen for the second stage of the experiment. The test group was administered the peptide mixed with feed, in the amount of 10 μg per 1 kg of body weight. The control group was not administered any of the peptide. The data was biometrically processed.
# [2] = Weight gain in pigs; format: in vivo
# Method: The purpose of the first stage of testing was to determine the optimal dose of the peptide necessary to achieve the desired weight gain and the most beneficial manner of administering the peptide. The first stage of testing was conducted over a period of 100 days.
# The pigs were divided into seven groups of ten animals each. The animals were all aged 4-5 months, and weighed about the same. There was one control group and six test groups. All the groups were given an ordinary diet.
# Test groups 2, 3, and 4 were administered the peptide (1.0, 5.0, 10.0 μg kg/body weight) with feed, for 20 days each month with a 10 day break. Test groups 5, 6, and 7 were administered the peptide by injections of 0.01% water solutions for five days each month with a 25 day break (0.1, 0.5 and 1.0 μg per body weight).
# Physiological examinations and biochemical tests were carried out during the experiment. The pigs were weighed on the 30th, 65th and 100th days of the experiment. […] Administration of 1 μg per 1 kg of body weight by intramuscular injections achieved a weight gain 18% higher than the control group (group 6).
# The second stage of the experiment lasted 95 days, after which the animals were killed. The second stage of the experiment was carried out only with groups three and six, in order to determine which method of administration of the peptide produced the best results. […]
# [3] = Weight gain in chickens (cockerels); format: in vivo, P-46 breed
# Method: The effect of the peptide on weight gain in chickens was examined. Tests were conducted on chickens of egg oriented productivity, "P-46" breed. 24 hour old cockerels were divided in 5 groups, 13 cockerels in each--one control group and 4 test groups.
# The birds were given a full diet till they reached the age of 10 weeks. 100% of birds in both the control and test groups survived.
# After 10 weeks, the cockerels were killed and examined.
# Quality of the cockerel meat was tested on an organoleptic basis.
compound,measurement,setting,value
C[C@@H](NC(=O)[C@H](Cc1ccc(O)cc1)NC(=O)[C@@H](N)CCCNC(=N)N)C(=O)N[C@@H](Cc1ccccc1)C(=O)NCC(=O)O [H-Arg-Tyr-D-Ala-Phe-Gly-OH] (H-RY[dA]FG-OH),"temperature, pulse and breath-rate",[1],no deviation from the control group
same,biochemical and physicochemical tests,[2],no deviation from the control group
same,"quality characteristics (pathological changes, decrease of fat layer, etc.)",[2],No changes were observed
same,solubility in alcohol,alcohol,slightly soluble
same,solubility in chloroform,chloroform,practically insoluble
same,solubility in water,water,soluble
same,"quality of cockerel meat (colour, smell, consistency, taste), organoleptic",[3]; all groups,the same as in the control group
same,birds survived,"[3]; test groups, to age of 10 weeks",100%
